Measured values: PubChem BioAssay (NCI)
Several values for one entry are separate records, joined by “and”; a condition that tells them apart may be missing. Equal values may be shown once.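 Where inhibition never reached the appropriate level, the endpoint shown equals the highest concentration tested. Otherwise, values were interpolated linearly from a five-concentration, 48-hour dose response in 96-well plates. GI50 is the concentration that inhibits growth by half. At the TGI there is no net growth.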 Where a SMILES comes first, the peptide text is derived from it. The star is where a group is joined. Boc = CC(C)(C)OC(=O)*; Bn = c1ccc(C*)cc1

How the values were obtained:
Assay in all cases: NCI-60 cell line screen, 48 h
MOLT-4 leukemia = test system: MOLT-4 leukemia
UACC-62 melanoma = test system: UACC-62 melanoma
ACHN renal = test system: ACHN renal
PC-3 prostate = test system: PC-3 prostate
K-562 leukemia = test system: K-562 leukemia
SN12C renal = test system: SN12C renal
NCI-H522 lung = test system: NCI-H522 lung
OVCAR-4 ovarian = test system: OVCAR-4 ovarian
IGROV1 ovarian = test system: IGROV1 ovarian
MCF7 breast = test system: MCF7 breast
M14 melanoma = test system: M14 melanoma

Row | Compound | TGI (MOLT-4 leukemia) | TGI (UACC-62 melanoma) | TGI (ACHN renal) | TGI (PC-3 prostate) | TGI (K-562 leukemia) | TGI (SN12C renal) | TGI (NCI-H522 lung) | TGI (OVCAR-4 ovarian) | TGI (IGROV1 ovarian) | TGI (MCF7 breast) | TGI (M14 melanoma) | GI50 (ACHN renal) | GI50 (PC-3 prostate) | GI50 (SN12C renal) | GI50 (M14 melanoma)
1 | CC1=N[C@@](C)(C2CC3C=CC2C3=O)COC1=O (stereo partly drawn) | > 100 µM | > 100 µM | > 100 µM | > 100 µM | > 100 µM | > 100 µM | > 100 µM | > 100 µM | > 100 µM | > 100 µM | > 100 µM |  |  |  | 
2 | CC1=CC(=O)N(n2c(Cc3ccc(Cl)cc3)n[nH]c2=O)C1=O | 47.4 µM | 45.4 µM | > 100 µM | > 100 µM | 72.2 µM | > 100 µM | 35.7 µM | > 100 µM | > 100 µM | > 100 µM | > 100 µM |  |  |  | 
3 | C=CCCCC1(C)CCNC1=S (stereo not drawn) | > 100 µM | > 100 µM | > 100 µM | > 100 µM | > 100 µM | > 100 µM | > 100 µM | > 100 µM | > 100 µM | > 100 µM | > 100 µM |  |  |  | 
4 | Cc1cccc(C)c1N=Nc1ccc(O)c(CN(C)C)c1 | > 100 µM | 64.6 µM | > 100 µM | > 100 µM | > 100 µM | > 100 µM | > 100 µM | > 100 µM | > 100 µM | > 100 µM | 58.1 µM |  |  |  | 
5 | O=C1/C(=C/c2ccc(O)c(O)c2)CC/C1=C\c1ccc(O)c(O)c1 | > 36.8 µM | 26 µM | 26.6 µM | > 100 µM | 27.7 µM | > 79.5 µM | 5.42 µM | > 57.5 µM | > 58.5 µM | 22.3 µM | 9.56 µM |  |  |  | 
6 | CCC1CCC2c3c([nH]c4ccc(C)cc34)C3C(=O)N(N(C)C)C(=O)C3C2C1 (stereo not drawn) | > 100 µM | > 100 µM | > 100 µM | > 100 µM | > 57 µM | > 100 µM | 2.68 µM | > 100 µM | > 100 µM | > 100 µM | > 100 µM |  |  |  | 
7 | O=C1CC2CC(CC3(CO3)C2)C1F (stereo not drawn) | > 100 µM | > 100 µM | > 100 µM | > 100 µM | > 100 µM | > 100 µM | > 100 µM | > 100 µM | > 100 µM | > 100 µM | > 100 µM |  |  |  | 
8 | COc1cc(CNc2c3ccccc3nc3ccccc23)cc(OC)c1OC | > 22 µM | 7.74 µM | 14.4 µM | 11.9 µM | 2 µM | 15.3 µM | 11.6 µM | 20.3 µM | 25.2 µM | > 32.9 µM | 8.76 µM |  |  |  | 
9 | COc1ccc(-c2nc3c(C(=O)NCCN(C)C)cccc3c3ccccc23)cc1 | 6.55 µM | 4.66 µM | 12.8 µM | 13.7 µM | 4.68 µM | 16.9 µM | 8.82 µM | 12.5 µM | 14.6 µM | 8.65 µM | 3.93 µM |  |  |  | 
10 | CN(C)c1ccc(/C=C(\NC(=O)c2ccccc2)C(=O)Nc2cccc(C(=O)NCCCO)c2)cc1 | > 100 µM | > 100 µM | > 100 µM | > 100 µM | > 100 µM | > 100 µM | > 100 µM | > 100 µM | > 100 µM | > 100 µM | > 100 µM |  |  |  | 
11 | CNC(=O)C(CC(C)C)NC(=O)C(C)NC(=O)C(Cc1ccc(OCc2ccccc2)cc1)NC(=O)C(COCc1ccccc1)NC(=O)OC(C)(C)C (stereo not drawn) (Boc-S(Bn)Y(Bn)AL-NHMe; configuration not given here) | 22.9 µM and 38.5 µM | > 31.6 µM | > 100 µM | 58.4 µM and 18.6 µM | > 48 µM and 38.4 µM | > 86.4 µM and 42.1 µM | 37.4 µM | 41.2 µM and 45.4 µM | 53.9 µM and 63.7 µM | 35.5 µM and 26.2 µM | > 100 µM and 28.2 µM | > 100 µM and 13 µM | 19.2 µM and 2.53 µM | > 52.3 µM and 18.8 µM | 42.1 µM and 15 µM
12 | CC(C)(C)[Si](C)(C)OCC1OC(n2ccc(=O)[nH]c2=O)C(O[Si](C)(C)C(C)(C)C)[C@]12O[C@@H]2CO (stereo partly drawn) | 46.3 µM | 36.8 µM | 24.2 µM | 16.8 µM | > 100 µM | 36.3 µM | 29.7 µM | 47.4 µM | 33.1 µM | 38.2 µM | 43.2 µM |  |  |  | 
13 | Cc1cn(C2CCN(CC3COC(C)(C)O3)O2)c(=O)[nH]c1=O (stereo not drawn) | > 100 µM | > 100 µM | > 100 µM | > 100 µM | > 100 µM | > 100 µM | > 100 µM | > 100 µM | > 100 µM | > 100 µM | > 100 µM |  |  |  | 
14 | CC(=O)Nc1cc2nc3n(c2cc1C)CCC3OC(C)=O (stereo not drawn) | > 100 µM | > 100 µM | > 100 µM | > 100 µM | > 100 µM | > 100 µM | > 100 µM | > 100 µM | > 100 µM | > 100 µM | > 100 µM |  |  |  | 
15 | O=C(Nc1cccc(C(=O)NCCCO)c1)/C(=C/c1ccccc1)NC(=O)c1ccccc1 | > 100 µM | > 100 µM | > 100 µM | > 100 µM | > 100 µM | > 100 µM | > 100 µM | > 100 µM | > 100 µM | > 100 µM | > 100 µM |  |  |  | 
16 | C=CC1(c2ccc3ccccc3c2)OCC(CC)O1 (stereo not drawn) | 87.9 µM | 88.3 µM | > 100 µM | > 100 µM | 85.1 µM | > 100 µM | > 100 µM | > 100 µM | > 100 µM | > 100 µM | > 100 µM |  |  |  | 
17 | CCCC(=O)OC[n+]1ccc(-c2c(COC(=O)NC(C)C)c(COC(=O)NC(C)C)c3n2CCC3)cc1 | > 100 µM | > 100 µM | > 100 µM | > 100 µM | > 100 µM | > 100 µM | > 100 µM | > 100 µM | > 100 µM | > 100 µM | > 100 µM |  |  |  | 
18 | CCC(C)C(NC(=O)C(CC(C)C)NC(=O)CNC(=O)C(NC(=O)C1CCCN1C(=O)C(CC(C)C)NC(=O)C(N)Cc1ccccc1)C(C)CC)C(=O)NC(CC(C)C)C(N)=O (stereo not drawn) (H-FLPIGLIL-NH2; configuration not given here) | > 75 µM | > 75 µM | > 75 µM | > 75 µM | > 75 µM | > 75 µM | > 75 µM | > 75 µM | > 75 µM | > 75 µM | > 75 µM |  |  |  | 
19 | CC(C)Cn1cnc2c(Cl)nc3ccccc3c21 | > 100 µM | > 100 µM | > 100 µM | > 100 µM | > 100 µM | > 100 µM | > 100 µM | > 100 µM | > 100 µM | > 100 µM | > 100 µM |  |  |  | 
20 | Cn1cc(-c2nnc(-c3ccc(Cl)cc3)[nH]c2=O)c2ccccc21 | 98.8 µM | > 51.9 µM | > 76.1 µM | > 78.7 µM | > 100 µM | > 64 µM | 6.16 µM | > 100 µM | > 100 µM | > 39.6 µM | > 100 µM |  |  |  | 
21 | CCCCCCCCCCOCCOCCOCCOCCCCC(O)CCCCCCCC1=C[C@H](C)OC1=O (stereo partly drawn) | 20.8 µM | 28.7 µM | 36 µM | 20.9 µM | 36.3 µM | 29.9 µM | 21.1 µM | 37.7 µM | 30.5 µM | 20 µM | 35.7 µM |  |  |  | 
22 | O=[N+]([O-])/C(Cl)=C/C(=C1/Nc2ccccc2O1)[N+](=O)[O-] | 87.2 µM | 56.7 µM | 37.5 µM | 32.3 µM | 87.1 µM | > 100 µM | 27 µM | 84.4 µM | > 100 µM | > 100 µM | 51.1 µM |  |  |  | 
23 | CS(=O)(=O)O[C@H]1[C@H](O)c2ccccc2[C@@H]1N=[N+]=[N-] | > 100 µM | > 100 µM | > 100 µM | > 100 µM | > 100 µM | > 100 µM | > 100 µM | > 100 µM | > 100 µM | > 100 µM | > 100 µM |  |  |  | 
24 | Nc1cc(Cl)ccc1SSc1ccc(Cl)cc1N | > 100 µM | 12.7 µM | 21.3 µM | 48.4 µM | > 100 µM | 28.7 µM | 23.8 µM | 31.1 µM | 25.5 µM | 15.7 µM | 21.7 µM |  |  |  | 
25 | O=C(O)C12CCC(CC1=O)C2 (stereo not drawn) | > 100 µM | > 100 µM | > 100 µM | > 100 µM | > 100 µM | > 100 µM | > 100 µM | > 100 µM | > 100 µM | > 100 µM | > 100 µM |  |  |  | 
26 | O=S(=O)(CCC[C@H]1[C@@H](CCOCc2ccccc2)C2CCCN1O2)c1ccccc1 (stereo partly drawn) | > 100 µM | > 100 µM | > 100 µM | > 100 µM | > 100 µM | > 100 µM | > 100 µM | > 100 µM | > 100 µM | > 100 µM | > 100 µM |  |  |  | 
27 | C(#CC1(Nc2ccccc2)CCN(Cc2ccccc2)CC1)C1(Nc2ccccc2)CCN(Cc2ccccc2)CC1 | 32.7 µM | 21.4 µM | > 56.2 µM | 36.5 µM | 16.1 µM | > 56.2 µM | > 56.2 µM | 53.7 µM | > 46.4 µM | > 56.2 µM | > 100 µM |  |  |  | 
28 | O=CN1CCC23CC(O)CCC2C1Cc1cc(Oc2nnnn2-c2ccccc2)cc(O)c13 (stereo not drawn) | > 100 µM | > 100 µM | > 100 µM | > 100 µM | > 100 µM | > 100 µM | > 100 µM | > 100 µM | > 100 µM | > 100 µM | > 100 µM |  |  |  | 
29 | S=C1CC(c2ccccc2)Sc2cc(Cl)ccc2N1 (stereo not drawn) | 28.2 µM | 44.9 µM | 27 µM | > 100 µM | 11.2 µM | > 100 µM | 16.9 µM | 28 µM | 84.5 µM | 34.8 µM | > 100 µM |  |  |  | 
